Drawing on patent US11524963B2, “Substituted pyrazolo[3,4-d]pyrimidines as RET kinase inhibitors” (Array Biopharma Inc., priority 2018, dated 2022), this text covers IC50 for three compounds.

Numbering of substitutions follows the chain as printed.

For orientation: IC50 means the point on the concentration scale where inhibition reaches its midpoint.

One assay deals with RET kinase Wild Type (Homo sapiens, UniProt P07949). In words: RET Enzyme Assay (HTRF KinEASE-TK), Wild Type. The format is biochemical. A general note: Time-resolved FRET reads energy transfer from a long-lived donor to a nearby acceptor.
A further assay concerns the target RET kinase V804M (Homo sapiens, UniProt P07949, V804M). In words: RET Enzyme Assay (HTRF KinEASE-TK), V804M. The format is biochemical.
A further assay deals with RET kinase M918T (Homo sapiens, UniProt P07949, M918T). In words: RET Enzyme Assay (HTRF KinEASE-TK), M918T. The format is biochemical.
For another assay, the target named is RET kinase G810S (Homo sapiens, UniProt P07949, G810S). In words: RET Enzyme Assay (HTRF KinEASE-TK), G810S. Type of assay: biochemical.
The next assay has as its target RET kinase G810R (Homo sapiens, UniProt P07949, G810R). The assay is described as follows: RET Enzyme Assay (HTRF KinEASE-TK), G810R. Type of assay: biochemical.
Assay [1] concerns the target T1, HEK-293 cells expressing a G810R mutant RET Kif5b-RET fusion protein (Homo sapiens, UniProt P07949, G810R).
T1 construct: expressed in transfected cells; host or cells: HEK-293; the other entry of the earlier key: KIF5B (P33176, Kinesin-1 heavy chain)
T1 sequence (P07949 713-1063 G810R limits assumed): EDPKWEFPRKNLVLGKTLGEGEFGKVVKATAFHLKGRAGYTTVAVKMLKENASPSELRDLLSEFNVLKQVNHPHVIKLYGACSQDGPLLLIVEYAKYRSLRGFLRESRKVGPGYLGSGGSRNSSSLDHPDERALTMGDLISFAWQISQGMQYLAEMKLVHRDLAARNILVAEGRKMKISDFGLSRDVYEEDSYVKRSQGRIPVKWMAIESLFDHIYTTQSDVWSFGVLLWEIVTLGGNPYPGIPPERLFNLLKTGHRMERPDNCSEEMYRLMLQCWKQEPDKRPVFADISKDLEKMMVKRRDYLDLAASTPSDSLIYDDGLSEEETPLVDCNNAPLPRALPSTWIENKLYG
In words: RET G810R Mutant Cell Assay (phospho-RET Tyr1062). Type of assay: cell-based. The following applies: 1 hour with compound, phospho-RET(Tyr1062) normalized to GAPDH. On the procedure: RET G810R and G810S Mutant Cell Assay
(§1) The cellular potency of compounds inhibiting RET kinase were determined in HEK-293 cells expressing a G810R or G810S mutant RET Kif5b-RET fusion protein. Briefly, HEK-293 cells expressing a G810R or G810S mutant RET Kif5b-RET fusion protein were plated at 50K cells/well in 96 well poly-D-Lysine coated plates the day prior to the assay. The cells were incubated for 1 hour with test compound in DMEM (Dulbecco's Modified Eagle Medium) at a final DMSO concentration of 0.5%. […] After 1 hour the media was removed, the cells were fixed with 3.8% formaldehyde for 20 min, washed with PBS, and permeabilized for 10 min with 100% methanol. […] All antibodies were diluted in LI-COR Block containing 0.05% Tween. The plates were washed with PBS-0.05% Tween20, 100 μL PBS was added to each well, and the plates were read on a LI-COR Aerius fluorescent plate reader. The phospho-RET signal was normalized to the GAPDH signal. 100 POC (percent of control) was determined using no test compounds and 0 POC was determined using 1 μM of a control inhibitor. The POC values are fit to a 4 parameter logistic curve. The IC50 value is the point where the curve crosses 50 POC.

Assay [2] concerns the target T2, HEK-293 cells expressing a Kif5b-RET fusion protein (Homo sapiens, UniProt P07949).
T2 construct: expressed in transfected cells; host or cells: HEK-293; the other entry of the earlier key: KIF5B (P33176, Kinesin-1 heavy chain)
T2 sequence (P07949 713-1063 limits assumed): T1 sequence (P07949 713-1063 G810R limits assumed) with R98G
The assay is described as follows: RET Cell Assay (phospho-RET Tyr1062). The settings on record: 1 hour with compound, phospho-RET(Tyr1062) normalized to GAPDH, read-out: KIF5B-RET pTYR1062 Cell IC50. The format is cell-based. On the procedure: as §1, with “a” for “a G810R or G810S mutant RET”, “PBS is” for “PBS was”, “values were” for “values are”

Sequence of RET kinase V804M (P07949 29-1114 V804M): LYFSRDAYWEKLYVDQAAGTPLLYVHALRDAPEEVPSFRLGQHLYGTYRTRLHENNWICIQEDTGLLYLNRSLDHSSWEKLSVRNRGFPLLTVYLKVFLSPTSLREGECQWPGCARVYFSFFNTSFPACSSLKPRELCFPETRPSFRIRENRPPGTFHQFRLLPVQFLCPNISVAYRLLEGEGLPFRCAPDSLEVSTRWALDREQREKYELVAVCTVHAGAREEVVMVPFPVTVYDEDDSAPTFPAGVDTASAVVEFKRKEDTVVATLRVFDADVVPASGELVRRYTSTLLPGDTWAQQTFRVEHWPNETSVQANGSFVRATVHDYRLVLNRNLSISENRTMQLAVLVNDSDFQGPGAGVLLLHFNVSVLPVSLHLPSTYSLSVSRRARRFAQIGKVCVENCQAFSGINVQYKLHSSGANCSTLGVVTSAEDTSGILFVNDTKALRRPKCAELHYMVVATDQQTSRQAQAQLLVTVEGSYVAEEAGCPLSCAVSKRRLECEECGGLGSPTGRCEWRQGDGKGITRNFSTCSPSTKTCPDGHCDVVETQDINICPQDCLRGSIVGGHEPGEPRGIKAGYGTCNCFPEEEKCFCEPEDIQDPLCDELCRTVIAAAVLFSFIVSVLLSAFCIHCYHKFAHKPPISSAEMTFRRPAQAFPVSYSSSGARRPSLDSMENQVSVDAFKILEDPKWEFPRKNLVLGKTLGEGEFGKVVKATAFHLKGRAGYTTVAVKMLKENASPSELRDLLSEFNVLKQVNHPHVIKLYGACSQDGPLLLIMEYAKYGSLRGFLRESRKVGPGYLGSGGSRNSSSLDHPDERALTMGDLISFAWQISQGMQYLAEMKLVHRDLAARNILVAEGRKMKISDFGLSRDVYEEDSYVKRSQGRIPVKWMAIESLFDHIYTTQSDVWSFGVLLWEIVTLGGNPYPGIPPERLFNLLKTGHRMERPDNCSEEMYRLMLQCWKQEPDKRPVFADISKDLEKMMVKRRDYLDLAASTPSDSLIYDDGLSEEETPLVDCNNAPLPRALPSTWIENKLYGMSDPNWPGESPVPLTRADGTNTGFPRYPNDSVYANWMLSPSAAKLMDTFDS
Sequence of RET kinase M918T (P07949 29-1114 M918T): as the sequence (P07949 29-1114 V804M) above, with M776V, M890T counted along it
Sequence of RET kinase G810S (P07949 29-1114 G810S): as the sequence (P07949 29-1114 V804M) above, with M776V, G782S counted along it
Sequence of RET kinase G810R (P07949 29-1114 G810R): as the sequence (P07949 29-1114 V804M) above, with M776V, G782R counted along it
Sequence of RET kinase Wild Type (P07949 29-1114): as the sequence (P07949 29-1114 V804M) above, with M776V counted along it

Regarding `Cc1cc(-c2nn(C(C)C)c3ncnc(N)c23)n(C2CCCCO2)n1` (stereo not drawn) [Example 21, 1-isopropyl-3-(3-methyl-1-(tetrahydro-2H-pyran-2-yl)-1H-pyrazol-5-yl)-1H-pyrazolo[3,4-d]pyrimidin-4-amine], the IC50 at RET kinase Wild Type was determined as 2.1 nM; at RET kinase V804M, 260 nM; against RET kinase M918T, 4.1 nM; against RET kinase G810S, 17.9 nM; against RET kinase G810R, 19.5 nM; in assay [1], 342 nM. In addition, the IC50 in assay [2] was 36 nM.
Turning to `CC(C)n1nc(-c2noc(C3CC3)c2C2=CCC(O)CC2)c2c(N)ncnc21` (stereo not drawn) [Example 14, 4-(3-(4-amino-1-isopropyl-1H-pyrazolo[3,4-d]pyrimidin-3-yl)-5-cyclopropylisoxazol-4-yl)cyclohex-3-en-1-ol], the IC50 on RET kinase Wild Type worked out at 1.2 nM; on RET kinase V804M, 7 nM; on RET kinase M918T, 1.5 nM; at RET kinase G810S it was 4.9 nM; against RET kinase G810R, 4.1 nM; in assay [1], 86 nM. Moreover, the IC50 in assay [2] was found to be 35 nM.
`CC(C)n1nc(-c2cc(C3CC3)nn2C2CCCCO2)c2c(N)ncnc21` (stereo not drawn) [Example 19, 3-(3-cyclopropyl-1-(tetrahydro-2H-pyran-2-yl)-1H-pyrazol-5-yl)-1-isopropyl-1H-pyrazolo[3,4-d]pyrimidin-4-amine]: the IC50 amounted to 3.9 nM against RET kinase Wild Type; 418 nM against RET kinase V804M; 6.1 nM at RET kinase M918T; 24.1 nM against RET kinase G810S; 28.9 nM against RET kinase G810R; 628 nM in assay [1]. Further, in assay [2], the IC50 came out at 40 nM.
